The values below come from patent publication US20210283253A1, “COMPOSITIONS AND METHODS AGAINST P. AERUGINOSA INFECTIONS” (priority 2017, published 2021).

Entries after “also recorded” stand apart in the source; their conditions may differ.

For experiment [1], the system named is Pseudomonas aeruginosa. Description: OPA with mAb/antibiotic combinations. The experiment is classed as cell-based. The following applies: 90 minutes. On the procedure:
The assay is performed in 96-well microtiter plates with 1% BSA in MEM as the assay diluent. The Leukemia-derived human cell-line HL-60 is used as source of neutrophils. Differentiation of HL-60 cells into neutrophils is induced by addition of 100 mM Dimethylformamide (DMF). Neutrophil morphology is verified by expression of CD11b/Mac-1 marker using FACS. Neutrophils are washed, re-suspended in assay diluent, counted and diluted to a density of 2.5×10^7 cells/ml. Opsonization is mediated by Rabbit sera complement, diluted in assay diluent for a final dilution factor of 1:60. Freshly grown log-phase Pseudomonas strains are re-suspended and diluted in assay diluent to achieve a final ratio of neutrophils to bacteria of 20:1 to 40:1. Dilutions of Aerucin™ from 5 μg/ml to 100 ng/ml are prepared in assay diluent along with a commercial human IgG1 at 5 μg/ml as negative control. Other negative controls include assay mixtures with certain components (complements, neutrophils, antibodies) absent.
Equal volumes (50 μl) of each component are added to assay wells in the order of: antibodies, complement, neutrophils then bacteria. The components are mixed using a multichannel pipette. Samples at time zero are taken, diluted and plated on agar plates for titer determination. Assay plates are then incubated at 37° C. with shaking for 90 minutes. Samples are again taken, diluted and plated on agar plates.
(§1) Bacteria titers (CFU/ml) are determined for time-zero and 90-minute samples from colony counts on agar plates after overnight incubation at 37° C. Percent kills are calculated as the difference in titer at 90 minutes from time-zero, divided by the titer at time-zero: […].
The assay is performed as described above except that equal volumes (50 μl) of each component are added to assay wells in the order of: antibodies, antibiotic, complement, neutrophils, and then bacteria. Bacteria titers (CFU/ml) are measured directly after mixing all components and after 90 minutes incubation. The read-out of the assay (% kill) is how well the drug or combination of drugs can kill bacteria over these 90 minutes.
Averages from three independent experiments are presented.
Minimum inhibitory concentrations (MICs) of the antibiotics used in the OPA assays had been determined upfront (data not shown). […] Data for bactericidal antibiotics Cefepime and Piperacillin was generated with 1×MIC, for Aztreonam (bactericidal) with ½ MIC.

In experiment [2] the test system is P. aeruginosa. The following applies: cited from earlier work.
Experiment [3] has as its system Pseudomonas aeruginosa. Description: Opsonic phagocytosis assay (OPA) with Aerucin. The experiment is classed as cell-based.
From the text: FIG. 3. […] The opsonic phagocytosis assay (OPA) measures potency of antibodies based on the ability to initiate and mediate destruction of their specific targets by neutrophils. The assay utilizes purified complement from goat, rabbit, guinea pig or human sera, and neutrophils either isolated from whole blood or from differentiation of parental cell lines. Various concentrations of the antibody of interest, along with controls, are mixed with antigens. Complement serum and neutrophils are then added at certain ratios. After incubation to allow phagocytosis to occur, fractions of remaining antigens are then quantified by plating (bacteria) on agar plates to enumerate bacterial colonies remaining from the titer that was used at the start of the assay reaction. […]
The assay is performed in 96-well microtiter plates with 1% BSA in MEM as the assay diluent. […] Neutrophils are washed, re-suspended in assay diluent, counted and diluted to a density of 2.5×10^7 cells/ml. […]
as §1

Where [4] appears, read: 4 μg/ml antibiotic alone (Cefepime 1× MIC, Aztreonam ½ MIC).

Consider `C[C@H]1[C@H](NC(=O)/C(=N\OC(C)(C)C(=O)O)c2csc(N)n2)C(=O)N1S(=O)(=O)O` [Aztreonam], for which, in experiment [1] (setting [4]), the “% Kill” value is 60%.
For `CO/N=C(\C(=O)N[C@@H]1C(=O)N2C(C(=O)[O-])=C(C[N+]3(C)CCCC3)CS[C@H]12)c1csc(N)n1` [Cefepime], the “% Kill” value in experiment [1] (setting [4]) is on record as 40%.
On to `O=C(O)c1cn(C2CC2)c2cc(N3CCNCC3)c(F)cc2c1=O` [Ciprofloxacin], for which the “% Kill” value in experiment [1] (0.5 μg/ml Ciprofloxacin alone (2× MIC)) is listed as “does not show bacterial killing”.
For the molecule `CCN1CCN(C(=O)N[C@@H](C(=O)N[C@@H]2C(=O)N3[C@@H]2SC(C)(C)[C@@H]3C(=O)O)c2ccccc2)C(=O)C1=O` [Piperacillin], the “% Kill” value in experiment [1] (8 μg/ml Piperacillin alone (1× MIC)) is recorded as about 40%.
As to Colistin, the “% Kill” value in experiment [1] (2 μg/ml Colistin alone (2× MIC)) is reported as about 20%.
Regarding “Panobacumab: anti-P. aeruginosa serotype 011 lipopolysaccharide monoclonal antibody”, in experiment [2] (meropenem resistant strain), the “activity on a meropenem resistant P. aeruginosa strain” value is “retained activity”. In addition, in experiment [2] (neutropenic host), the “bacterial clearance from the lung” value was “enhanced bacterial clearance” and the lung inflammation entry is on record as “significantly reduced lung inflammation”.

B1: Aerucin: anti-Pseudomonas aeruginosa MEP binding human monoclonal antibody; heavy chain variable SEQ ID NO: 5, light chain variable SEQ ID NO: 7 (antibody, listed as Homo sapiens, V domains shown)
VH: QLQLQESGPGLVKPTETLSLTCTVSGGPITYINYYWGWVRQPPGKGLEWIGSIHYDGSTFYNPSLKSRVTISGDTSKSEFSVKLSSVTAADTAVYYCARTYYDASGSPYFDHWGQGTLVTVSS
VL: QSVLTQPPSVSAAPGQKVSISCSGSSSNIGNNYVSWYQQLPGTAPNLLIYDNNKRPSGIPDRFSGSKSGTSATLDITGLQSGDEADYYCGTWDSSLSTWVFGGGTKLTVL
With B1, the “opsonic phagocytosis: killing over negative controls” value in experiment [3] (Aerucin 5 μg/ml to 100 ng/ml, rabbit complement, HL-60 neutrophils, 90 minutes) was “significant increase in killing over negative controls in a dose-dependent manner”. Also, the “killing of P. aeruginosa in the absence of complement” value in experiment [3] (OPA without complement, a number of Pa strains (Pa 2410, Pa 27853, Pa PGO2338)) was “killing of P. aeruginosa bacteria in the absence of complement; also recorded: killing was observed in the absence of complement”. For the same molecule, the “% Kill” value in experiment [1] (50 ng/ml Aerucin alone) was “around 5%”.
